Measured values from patent US6440935B1, “Inhibition of eucaryotic pathogens and neoplasms and stimulation of fibroblasts and lymphocytes with lytic peptides” (priority 1987, dated 2002).
Where “and” joins values, the source holds several entries; their conditions need not be identical. Equal entries are not always repeated. Where two headings read alike, the source gives them in different places. Residues, ends and D or L forms follow the SMILES beside them.

Experiments:
[1] = test system: Xanthomonas campestris pv. campestris; assay: Plant pathogen LD50 in cecropin SB-37/lysozyme; type: cell-based; details: incubation at 30° C.
[2] = test system: KG-1 human leukemia cells; assay: Viability by trypan blue exclusion, KG-1 cells; type: cell-based
Protocol: (§1) EL-4 lymphoma cells were suspended in RPMI 1640 at 5,000,000/ml with 500,000 cells per well. Various concentrations of cecropin SB-37 and Shiva 1 were added and the wells incubated at 37° C. in a 5% CO2 atmosphere for one hour. Viability was determined by microscopic observation for trypan blue exclusion.
(§2) The procedure of Example 5 was repeated with 50 and 200 μM cecropin SB-37 using SP2 mouse lymphoma cells, KG-1 human leukemia cells, Daudi human Burkitt's lymphoma cells, non-adherent normal human lymphocytes and adherent 3T3 […] fibroblasts. Viability was determined by microscopic observation for trypan blue exclusion.
(§3) This procedure was repeated with 100 μM cecropin SB-37 using non-adherent normal human lymphocytes, Daudi human Burkitt's lymphoma cells, KG-1 human leukemia cells, U937 human monocytic leukemia cells, and SP2 murine myeloma cells, and determining viability by the trypan blue exclusion method at 15, 30 and 60 minutes following addition of the peptide.

[3] = Viability by trypan blue exclusion, KG-1 cells; type: cell-based, human; details: 100 μM
Protocol: as §1, §2, §3

[4] = In vivo screening on mice; set-up: species or system BALB/C mice; details: for WBC Count: 110 mg/kg per day i.m. for 6 days, Mouse 1, 2, 3
Protocol: Nine BALB/C mice, 4 to 5 weeks of age, maintained on commercial rodent ration fed ad libidum and in general good health were each inoculated with 1.76 mg/day of cecropin SB-37 in PBS intramuscularly for 4 consecutive days. No other change was made in diet or conditions. […] At the end of the fourth day, three were sacrificed and examined. After 30 days, three were given an additional 1.76 mg of cecropin SB-37 each.
The remaining mice were all sacrificed 7 days after the last inoculation.
Following the above procedure, three BALB/C mice were given 110 mg/kg of body weight per day of cecropin SB-37 injected intramuscularly in balanced salt solution for 6 days. Ten days after the last inoculation, the mice were again injected intramuscularly with 110 mg/kg of body weight with cecropin SB-37. […] All three mice were sacrificed 7 days after the final inoculation and tissues were examined.

[5] = test system: T. cruzi intracellular amastigotes in Vero cells; assay: In vitro effect on T. cruzi intracellular amastigotes in Vero cells; type: cell-based, Trypanosoma cruzi; details: one hour period, relative to no peptide
Protocol: Vero cells at 10^5 cells/ml in MEM-FBS were mixed with Trypanosoma Cruzi in the trypomastigote stage at 10^5 cells/ml in the same medium at a 1:1 ratio of Vero cells to trypomastigotes. The mixture of Vero cells and trypomastigotes was cultured at 37° C. in a 5% CO2 atmosphere in microscope slide chambers. At 24 hours, cecropin SB-37 was added to the chambers, except for a set of controls, at a final concentration of 100 μM. […]

[6] = test system: Pseudomonas syringae pv. tabaci; assay: Plant pathogen LD50 in cecropin SB-37/lysozyme; type: cell-based; details: incubation at 30° C.
SP2 mouse lymphoma cells = assay: Viability by trypan blue exclusion, SP2 cells; type: cell-based
Protocol: as §1, §2, §3

[7] = Viability by trypan blue exclusion, SP2 cells; type: cell-based, mouse; details: 100 μM
Protocol: as §1, §2, §3

[8] = Viability by trypan blue exclusion, normal lymphocytes; type: cell-based, human; details: 100 μM
Protocol: as §1, §2, §3

[9] = test system: non-adherent normal human lymphocytes; assay: as above; type: cell-based
Protocol: as §1, §2, §3

[10] = EL-4 cell viability by trypan blue exclusion; type: cell-based; details: one hour, 95% at 0 μM
Protocol: as §1

[11] = EL-4 cytotoxicity by chromium release; type: cell-based; details: for cytotoxicity at 100 µM: read-out: Percent Cytotoxicity
Protocol: (§4) The EL-4 cells were then incubated for 30 minutes in the presence of various peptides at different concentrations. Cytotoxicity was taken as a percentage of chromium released (measured in the culture supernatant) relative to the chromium released by EL-4 cells lysed by detergent.
(§5) Similar chromium release data were obtained using the same procedure with a 100 μM concentration of peptide, but with EL-4 cell concentrations of 2×10^6, 10^6, and 5×10^5 cells in 0.5 ml medium.
(§6) The chromium release data was also obtained by using the supernatant from unlabeled EL-4 cells cultured for 30 minutes in the presence of 100 μM peptide as medium for […] EL-4 cultured as described above. The percent cytotoxicity calculated as described above was 20.16 for cecropin SB-37, 19.73 for *cecropin SB-37, 41.96 for Shiva 1, and 106.67 for melittin.

EL-4 cells = assay: EL-4 cytotoxicity by chromium release; type: cell-based; details: 30 minutes, 10^6 EL-4 cells
Protocol: as §4, §5, §6

[12] = test system: adherent 3T3 human fibroblasts; assay: Viability by trypan blue exclusion, 3T3 fibroblasts; type: cell-based
[13] = Viability by trypan blue exclusion, Daudi cells; type: cell-based, human; details: 100 μM
Protocol: as §1, §2, §3

[14] = test system: Daudi human Burkitt's lymphoma cells; assay: Viability by trypan blue exclusion, Daudi cells; type: cell-based
Protocol: as §1, §2, §3

[15] = test system: Plasmodium falciparum in human red blood cells; details: 24-hour period, relative to untreated infected red blood cells

CC[C@H](C)[C@H](NC(=O)CNC(=O)[C@H](CC(N)=O)NC(=O)[C@H](CCCNC(=N)N)NC(=O)[C@@H](NC(=O)[C@H](CC(N)=O)NC(=O)[C@H](CCCNC(=N)N)NC(=O)CNC(=O)[C@H](CCSC)NC(=O)[C@H](CCCCN)NC(=O)[C@H](CCC(=O)O)NC(=O)[C@@H](NC(=O)[C@H](CCCCN)NC(=O)[C@H](CCCCN)NC(=O)[C@H](Cc1ccccc1)NC(=O)[C@@H](NC(=O)[C@H](CCCCN)NC(=O)[C@H](Cc1c[nH]c2ccccc12)NC(=O)[C@H](CCCCN)NC(=O)[C@@H]1CCCN1C(=O)[C@@H](N)CCSC)C(C)C)[C@@H](C)CC)[C@@H](C)CC)C(=O)N[C@H](C(=O)N[C@@H](CCCCN)C(=O)N[C@@H](C)C(=O)NCC(=O)N1CCC[C@H]1C(=O)N[C@@H](C)C(=O)N[C@H](C(=O)N[C@@H](C)C(=O)N[C@H](C(=O)N[C@@H](CC(C)C)C(=O)NCC(=O)N[C@@H](CCC(=O)O)C(=O)N[C@@H](C)C(=O)N[C@@H](CCCCN)C(=O)N[C@@H](C)C(=O)N[C@@H](CC(C)C)C(=O)NCC(N)=O)C(C)C)[C@@H](C)CC)C(C)C [Cecropin SB-37] (H-MPKWKVFKKIEKMGRNIRNGIVKAGPAIAVLGEAKALG-NH2)
LD50 [1]: 0.57 µM
Survival (percent) ([2]; 50 μM): 95%
Survival (percent) ([2]; 100 μM): 0%
viability at 100 µM ([3]; 15 min.): 50%
viability at 100 µM ([3]; 30 min.): 75%
viability at 100 µM ([3]; 60 min.): 50%
adverse reactions ([4]; 1.76 mg/day intramuscularly, 4 consecutive days, observed twice daily): no adverse reactions were noted
antibody to cecropin SB-37 ([4]; 1.76 mg/day regimen): None of these mice produced detectable levels of antibody
examination of organs and tissues ([4]; 1.76 mg/day regimen, sacrificed 7 days after the last inoculation): no gross pathological changes were present
WBC Count ([4]; Day 1): 13 10^3/ml and 9 10^3/ml
WBC Count ([4]; Day 3): 14 10^3/ml and 9 10^3/ml and 10 10^3/ml
WBC Count ([4]; Day 5): 15 10^3/ml and 19 10^3/ml
WBC Count ([4]; Day 8): 21 10^3/ml
WBC Count ([4]; Day 11): 23 10^3/ml and 20 10^3/ml
adverse effects ([4]; 110 mg/kg per day intramuscularly for 6 days, again ten days later): no adverse effects
cecropin SB-37 antibodies ([4]; 110 mg/kg regimen): No cecropin SB-37 antibodies were detected
examination of tissues ([4]; 110 mg/kg regimen, sacrificed 7 days after the final inoculation): enlarged spleens but were otherwise unremarkable
adverse reactions ([4]; additional 1.76 mg after 30 days): No adverse reactions were noted
viability: 0%
viability at 0.01 µM: 100%
viability at 0.1 µM: 79.4%
viability at 1 µM: 48.8%
viability at 5 µM: 38.5%
viability at 7.5 µM: 0.7%
LD50 (concentration for 50% reduction in number of infected Vero cells) [5]: about 90 μM
LD50 [6]: 5.20 µM
Survival (percent) (SP2 mouse lymphoma cells; 50 μM): 20%
Survival (percent) (SP2 mouse lymphoma cells; 100 μM): 5%
viability at 100 µM ([7]; 15 min.): 100%
viability at 100 µM ([7]; 30 min.): 40%
viability at 100 µM ([7]; 60 min.): 10%
viability at 100 µM ([8]; 15 min.): 75%
viability at 100 µM ([8]; 30 min.): 80%
viability at 100 µM ([8]; 60 min.): 85%
Survival (percent) ([9]; 50 μM): 100%
Survival (percent) ([9]; 100 μM): 30%
viability ([10]; 10 μM): 90%
viability ([10]; 25 μM): 90%
viability ([10]; 50 μM): 75%
viability ([10]; 100 μM): 20%
LD50 (Pseudomonas solanacearum): 64.0 µM
cytotoxicity at 100 µM ([11]; 2 × 10^6 cells per 0.5 ml): 93.8%
cytotoxicity at 100 µM ([11]; 5 × 10^5 cells per 0.5 ml): 99.6%
cytotoxicity at 100 µM ([11]; 10^6 cells per 0.5 ml): 89.2%
cytotoxicity ([11]; supernatant from unlabeled EL-4 cells cultured 30 minutes with 100 μM peptide used as medium for labeled EL-4, read-out: percent cytotoxicity): 20.2%
Percent Cytotoxicity (chromium release vs detergent-lysed cells) (EL-4 cells; 10 μM): 0.0%
Percent Cytotoxicity (chromium release vs detergent-lysed cells) (EL-4 cells; 25 μM): 4.49%
Percent Cytotoxicity (chromium release vs detergent-lysed cells) (EL-4 cells; 50 μM): 6.63%
Percent Cytotoxicity (chromium release vs detergent-lysed cells) (EL-4 cells; 100 μM): 36.42%
Survival (percent) ([12]; 50 μM): 80%
Survival (percent) ([12]; 100 μM): 80%
viability at 100 µM ([13]; 15 min.): 70%
viability at 100 µM ([13]; 30 min.): 70%
viability at 100 µM ([13]; 60 min.): 65%
Survival (percent) ([14]; 50 μM): 85%
Survival (percent) ([14]; 100 μM): 0%
LD50 (concentration for 50% reduction in 3H-hypoxanthine uptake) [15]: about 22.5 μM
